Laboratory results taken from ChEMBL document CHEMBL3525924, “Cytochrome P450 3A-mediated microsomal biotransformation of 1α,25-dihydroxyvitamin D3 in mouse and human liver: drug-related induction and inhibition of catabolism” (Drug Metab Dispos, 2012).

Tests used:
Assay type in all cases: ADME
[1] = Drug metabolism in prednisone treated CD1 mouse liver microsomes treated with 20 uM of 1alpha,25(OH)2D3 assessed as metabolite formation after 30 mins by LC/MS analysis in presence of NADPH; conditions: 0.5 h
Liver microsome [2] = experiment: Drug level in human liver microsomes assessed as retention time treated with 20 uM of 1alpha,25(OH)2D3 after 30 mins by LC/MS analysis in presence of NADPH; conditions: 0.5 h
[3] = Drug metabolism in prednisone treated CD1 mouse liver microsomes assessed as metabolite formation at 20 uM after 30 mins by LC/MS analysis in presence of NADPH and CYP2E inhibitor di-ethyldithiocarbamate; conditions: 0.5 h
[4] = Drug metabolism in dexamethasone treated CD1 mouse liver microsomes assessed as metabolite formation at 20 uM after 30 mins by LC/MS analysis in presence of NADPH and CYP2E inhibitor di-ethyldithiocarbamate; conditions: 0.5 h
[5] = Drug metabolism in CD1 mouse liver microsomes assessed as metabolite formation at 20 uM after 30 mins by LC/MS analysis in presence of NADPH and CYP2E inhibitor di-ethyldithiocarbamate; conditions: 0.5 h
[6] = Drug metabolism in prednisone treated CD1 mouse liver microsomes assessed as metabolite formation at 20 uM after 30 mins by LC/MS analysis in presence of NADPH and CYP2A inhibitor 8-methoxypsoralen; conditions: 0.5 h
[7] = Drug metabolism in dexamethasone treated CD1 mouse liver microsomes assessed as metabolite formation at 20 uM after 30 mins by LC/MS analysis in presence of NADPH and CYP2A inhibitor 8-methoxypsoralen; conditions: 0.5 h
[8] = Drug metabolism in CD1 mouse liver microsomes assessed as metabolite formation at 20 uM after 30 mins by LC/MS analysis in presence of NADPH and CYP2A inhibitor 8-methoxypsoralen; conditions: 0.5 h
[9] = Drug metabolism in prednisone treated CD1 mouse liver microsomes assessed as metabolite formation at 20 uM after 30 mins by LC/MS analysis in presence of NADPH and CYP2B inhibitor orphenadrine; conditions: 0.5 h
[10] = Drug metabolism in dexamethasone treated CD1 mouse liver microsomes assessed as metabolite formation at 20 uM after 30 mins by LC/MS analysis in presence of NADPH and CYP2B inhibitor orphenadrine; conditions: 0.5 h
[11] = Drug metabolism in CD1 mouse liver microsomes assessed as metabolite formation at 20 uM after 30 mins by LC/MS analysis in presence of NADPH and CYP2B inhibitor orphenadrine; conditions: 0.5 h
Liver microsome [12] = experiment: Drug metabolism in human liver microsomes assessed as IC50 for ritonavir-mediated inhibition of metabolite formation at 20 uM after 30 mins by LC/MS analysis; conditions: 0.5 h
Liver microsome [13] = experiment: Drug metabolism in human liver microsomes assessed as IC50 for ketoconazole-mediated inhibition of metabolite formation at 20 uM after 30 mins by LC/MS analysis; conditions: 0.5 h
Liver microsome [14] = experiment: Drug metabolism in human liver microsomes assessed as IC50 for clarithromycin-mediated inhibition of metabolite formation at 20 uM after 30 mins by LC/MS analysis; conditions: 0.5 h
Liver microsome [15] = experiment: Drug metabolism in human liver microsomes assessed as IC50 for tamoxifen-mediated inhibition of metabolite formation at 20 uM after 30 mins by LC/MS analysis; conditions: 0.5 h
Liver microsome [16] = experiment: Drug metabolism in human liver microsomes assessed as IC50 for docetaxel-mediated inhibition of metabolite formation at 20 uM after 30 mins by LC/MS analysis; conditions: 0.5 h
[17] = Drug level in dexamethasone treated CD1 mouse liver microsomes treated with 20 uM of 1alpha,25(OH)2D3 after 30 mins by LC/MS analysis in presence of NADPH relative to vehicle treated mouse; conditions: 0.5 h
[18] = Drug metabolism in prednisone treated CD1 mouse liver microsomes assessed as metabolite formation at 20 uM after 30 mins by LC/MS analysis in presence of NADPH and CYP1A2 inhibitor furafyline; conditions: 0.5 h
[19] = Drug metabolism in dexamethasone treated CD1 mouse liver microsomes assessed as metabolite formation at 20 uM after 30 mins by LC/MS analysis in presence of NADPH and CYP1A2 inhibitor furafyline; conditions: 0.5 h
[20] = Drug metabolism in CD1 mouse liver microsomes assessed as metabolite formation at 20 uM after 30 mins by LC/MS analysis in presence of NADPH and CYP1A2 inhibitor furafyline; conditions: 0.5 h
[21] = Drug metabolism in prednisone treated CD1 mouse liver microsomes assessed as metabolite formation at 20 uM after 30 mins by LC/MS analysis in presence of NADPH and CYP1A1 inhibitor alpha-naphthoflavone; conditions: 0.5 h
[22] = Drug metabolism in dexamethasone treated CD1 mouse liver microsomes assessed as metabolite formation at 20 uM after 30 mins by LC/MS analysis in presence of NADPH and CYP1A1 inhibitor alpha-naphthoflavone; conditions: 0.5 h
[23] = Drug metabolism in CD1 mouse liver microsomes assessed as metabolite formation at 20 uM after 30 mins by LC/MS analysis in presence of NADPH and CYP1A1 inhibitor alpha-naphthoflavone; conditions: 0.5 h
[24] = Drug metabolism in prednisone treated CD1 mouse liver microsomes assessed as metabolite formation at 20 uM after 30 mins by LC/MS analysis in presence of NADPH and CYP2C inhibitor sulfaphenazole; conditions: 0.5 h
[25] = Drug metabolism in dexamethasone treated CD1 mouse liver microsomes assessed as metabolite formation at 20 uM after 30 mins by LC/MS analysis in presence of NADPH and CYP2C inhibitor sulfaphenazole; conditions: 0.5 h
[26] = Drug metabolism in CD1 mouse liver microsomes assessed as metabolite formation at 20 uM after 30 mins by LC/MS analysis in presence of NADPH and CYP2C inhibitor sulfaphenazole; conditions: 0.5 h
[27] = Drug metabolism in prednisone treated CD1 mouse liver microsomes assessed as metabolite formation at 20 uM after 30 mins by LC/MS analysis in presence of NADPH and CYP2D inhibitor quinine; conditions: 0.5 h
[28] = Drug metabolism in dexamethasone treated CD1 mouse liver microsomes assessed as metabolite formation at 20 uM after 30 mins by LC/MS analysis in presence of NADPH and CYP2D inhibitor quinine; conditions: 0.5 h
[29] = Drug metabolism in CD1 mouse liver microsomes assessed as metabolite formation at 20 uM after 30 mins by LC/MS analysis in presence of NADPH and CYP2D inhibitor quinine; conditions: 0.5 h
Cytochrome P450 3A4 [30] = target: T1, Cytochrome P450 3A4 (Homo sapiens, UniProt P08684); experiment: Drug metabolism assessed as 1 uM ketoconazole-mediated inhibition of human CYP3A4-mediated metabolite formation by LC/MS analysis; conditions: recombinant enzyme
T1 sequence (P08684 whole entry): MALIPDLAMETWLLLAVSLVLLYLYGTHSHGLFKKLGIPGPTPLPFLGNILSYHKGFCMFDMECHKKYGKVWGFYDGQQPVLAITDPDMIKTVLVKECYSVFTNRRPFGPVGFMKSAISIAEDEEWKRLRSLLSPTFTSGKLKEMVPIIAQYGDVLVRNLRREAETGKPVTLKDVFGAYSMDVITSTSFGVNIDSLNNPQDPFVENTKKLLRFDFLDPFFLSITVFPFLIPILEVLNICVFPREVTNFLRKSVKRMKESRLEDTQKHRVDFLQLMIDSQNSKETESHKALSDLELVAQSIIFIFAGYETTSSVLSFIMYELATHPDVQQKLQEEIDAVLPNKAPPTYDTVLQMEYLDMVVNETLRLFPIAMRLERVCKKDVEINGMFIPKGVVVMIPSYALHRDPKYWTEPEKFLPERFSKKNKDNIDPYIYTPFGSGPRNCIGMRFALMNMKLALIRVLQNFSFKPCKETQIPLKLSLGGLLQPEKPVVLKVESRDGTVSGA

Cytochrome P450 3A4 [31] = target: T1, Cytochrome P450 3A4; experiment: Drug metabolism assessed as 10 uM ritonavir-mediated inhibition of human CYP3A4-mediated metabolite formation by LC/MS analysis; conditions: recombinant enzyme
Cytochrome P450 3A4 [32] = target: T1, Cytochrome P450 3A4; experiment: Drug metabolism assessed as 100 uM tamoxifen-mediated inhibition of human CYP3A4-mediated metabolite formation by LC/MS analysis; conditions: recombinant enzyme
Cytochrome P450 3A4 [33] = target: T1, Cytochrome P450 3A4; experiment: Drug metabolism assessed as 100 uM troleandromycin-mediated inhibition of human CYP3A4-mediated metabolite formation by LC/MS analysis; conditions: recombinant enzyme

SMILES | Drug metabolism [1] | Retention_time (Liver microsome [2]) [min] | Drug metabolism [3] | Drug metabolism [4] | Drug metabolism [5] | Drug metabolism [6] | Drug metabolism [7] | Drug metabolism [8] | Drug metabolism [9] | Drug metabolism [10] | Drug metabolism [11] | IC50 (Liver microsome [12]) [nM] | IC50 (Liver microsome [13]) [nM] | IC50 (Liver microsome [14]) [nM] | IC50 (Liver microsome [15]) [nM] | IC50 (Liver microsome [16]) [nM] | Drug metabolism [18] | Drug metabolism [19] | Drug metabolism [20] | Drug metabolism [21] | further results
C=C1/C(=C\C=C2/CCC[C@]3(C)[C@@H]([C@H](C)C[C@H](O)CC(C)(C)O)CC[C@@H]23)C[C@@H](O)C[C@@H]1O | metabolite_detected | 8.5 | metabolite_detected | metabolite_detected | metabolite_detected | metabolite_detected | metabolite_detected | metabolite_detected | metabolite_detected | metabolite_detected | metabolite_detected | 13 | 40 | > 30000 | > 40000 | 38 | metabolite_detected | metabolite_detected | metabolite_detected | metabolite_detected | fold change (FC) [17]: 43; Drug metabolism [22]: metabolite_detected; Drug metabolism [23]: metabolite_detected; Drug metabolism [24]: metabolite_detected; Drug metabolism [25]: metabolite_detected; Drug metabolism [26]: metabolite_detected; Drug metabolism [27]: metabolite_detected; Drug metabolism [28]: metabolite_detected; Drug metabolism [29]: metabolite_detected
C=C1/C(=C\C=C2/CCC[C@]3(C)[C@@H]([C@H](C)CC[C@H](O)C(C)(C)O)CC[C@@H]23)C[C@@H](O)C[C@@H]1O | metabolite_detected | 9 | metabolite_detected | metabolite_detected | metabolite_detected | metabolite_detected | metabolite_detected | metabolite_detected | metabolite_detected | metabolite_detected | metabolite_detected | 8 | 565 | > 30000 | > 40000 | 12 | metabolite_detected | metabolite_detected | metabolite_detected | metabolite_detected | Drug metabolism [17]: metabolite_detected; Drug metabolism [22]: metabolite_detected; Drug metabolism [23]: metabolite_detected; Drug metabolism [24]: metabolite_detected; Drug metabolism [25]: metabolite_detected; Drug metabolism [26]: metabolite_detected; Drug metabolism [27]: metabolite_detected; Drug metabolism [28]: metabolite_detected; Drug metabolism [29]: metabolite_detected
C=C1/C(=C\C=C2/CCC[C@]3(C)[C@@H]([C@H](C)CC[C@@H](O)C(C)(C)O)CC[C@@H]23)C[C@@H](O)C[C@@H]1O | metabolite_detected | 8.8 | metabolite_detected | metabolite_detected | metabolite_detected | metabolite_detected | metabolite_detected | metabolite_detected | metabolite_detected | metabolite_detected | metabolite_detected | 28 | 42 | > 30000 | > 40000 | 77 | metabolite_detected | metabolite_detected | metabolite_detected | metabolite_detected | fold change (FC) [17]: 17; Drug metabolism [22]: metabolite_detected; Drug metabolism [23]: metabolite_detected; Drug metabolism [24]: metabolite_detected; Drug metabolism [25]: metabolite_detected; Drug metabolism [26]: metabolite_detected; Drug metabolism [27]: metabolite_detected; Drug metabolism [28]: metabolite_detected; Drug metabolism [29]: metabolite_detected
C=C1/C(=C\C=C2/CCC[C@]3(C)[C@@H]([C@H](C)C[C@@H](O)CC(C)(C)O)CC[C@@H]23)C[C@@H](O)C[C@@H]1O | metabolite_detected | 9.7 | metabolite_detected | metabolite_detected | metabolite_detected | metabolite_detected | metabolite_detected | metabolite_detected | metabolite_detected | metabolite_detected | metabolite_detected | 16 | 32 | > 30000 | > 40000 | 38 | metabolite_detected | metabolite_detected | metabolite_detected | metabolite_detected | Drug metabolism [17]: metabolite_detected; Drug metabolism [22]: metabolite_detected; Drug metabolism [23]: metabolite_detected; Drug metabolism [24]: metabolite_detected; Drug metabolism [25]: metabolite_detected; Drug metabolism [26]: metabolite_detected; Drug metabolism [27]: metabolite_detected; Drug metabolism [28]: metabolite_detected; Drug metabolism [29]: metabolite_detected
Cc1nnc2n1-c1ccc(Cl)cc1C(c1ccccc1Cl)=NC2 [TRIAZOLAM] |  |  |  |  |  |  |  |  |  |  |  |  |  |  |  |  |  |  |  |  | Drug metabolism (Cytochrome P450 3A4 [30]): metabolite_not_detected; Drug metabolism (Cytochrome P450 3A4 [31]): metabolite_not_detected; Drug metabolism (Cytochrome P450 3A4 [32]): metabolite_not_detected; Drug metabolism (Cytochrome P450 3A4 [33]): metabolite_not_detected
